In ChEMBL document CHEMBL1144577, “1,5-Biaryl pyrrole derivatives as EP1 receptor antagonists. Structure-activity relationships of 6-substituted and 5,6-disubstituted benzoic acid derivatives” (Bioorg Med Chem Lett, 2007):

Key:
[1] = Blood clearance in rat; assay type: ADME, organism-based
[2] = Volume of distribution at steady state in rat; assay type: ADME, organism-based; conditions: in vivo, read-out: Vss
[3] = test system: Rattus norvegicus; assay: Reversal of hypersensitivity in po dosed FCA rat model of inflammatory pain; assay type: functional
[4] = biological target: T1, Prostaglandin E2 receptor EP1 subtype (Homo sapiens, UniProt P34995); assay: Displacement of [3H]PGE2 from human recombinant EP1 receptor expressed in CHOK1 cell membrane; assay type: cell membranes, CHO-K1
T1 sequence (P34995 whole entry): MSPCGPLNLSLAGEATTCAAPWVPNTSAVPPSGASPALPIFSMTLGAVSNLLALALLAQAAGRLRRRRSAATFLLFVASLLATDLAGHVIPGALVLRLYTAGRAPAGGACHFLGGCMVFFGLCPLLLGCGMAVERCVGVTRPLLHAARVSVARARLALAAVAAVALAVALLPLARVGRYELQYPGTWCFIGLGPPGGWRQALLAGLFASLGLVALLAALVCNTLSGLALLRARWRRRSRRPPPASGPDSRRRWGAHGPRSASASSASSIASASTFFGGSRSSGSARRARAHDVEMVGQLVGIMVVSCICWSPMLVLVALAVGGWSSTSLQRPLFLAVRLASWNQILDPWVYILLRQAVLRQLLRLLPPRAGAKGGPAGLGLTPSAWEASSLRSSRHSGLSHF

[5] = test system: Rattus norvegicus; assay: Normalized AUC (0 to t) in rat at 3 mg/kg, po; assay type: ADME, organism-based; parameters: dose 3 mg/kg, route oral; conditions: in vivo
[6] = Tmax in rat at 3 mg/kg, po; assay type: ADME, organism-based; parameters: dose 3 mg/kg, route oral; conditions: in vivo
[7] = Cmax in rat at 3 mg/kg, po; assay type: ADME, organism-based; parameters: dose 3 mg/kg, route oral; conditions: in vivo
[8] = test system: Rattus norvegicus; assay: Reversal of hypersensitivity in FCA rat model of inflammatory pain at 5 mg/kg, po; assay type: functional

SMILES | IC50 [4] [nM] | AUC/dose [5] [kg·min/L] | Tmax [6] [min] | Cmax [7] [nM] | further results
Cc1ccc(-c2cc(Br)ccc2OCc2ccc(F)cc2)n1-c1cccc(C(=O)O)c1 | – | – | – | – | clearance [1]: 42 mL/min/kg; Vd [2]: 0.7 L/kg; ED50 [3]: 9.2 mg/kg
COc1ccc(-n2c(C)ccc2-c2cc(Br)ccc2OCc2ccc(F)cc2F)cc1C(=O)O | 0.398 | 4 | 30 | 340 | –
Cc1ccc(-c2cc(Br)ccc2OCc2ccc(F)cc2)n1-c1ccc(OC(F)F)c(C(=O)O)c1 | 2 | – | – | – | –
Cc1c(N)cc(-n2c(C)ccc2-c2cc(C(F)(F)F)ccc2OCc2ccc(F)cc2)cc1C(=O)O | 3.98 | – | – | – | –
Cc1ccc(-c2cc(Br)ccc2OCc2ccc(F)cc2)n1-c1cc(C(=O)O)c2ccccc2c1 | 5.01 | 9 | 30 | 520 | –
Cc1ccc(-c2cc(Br)ccc2OCc2ccc(F)cc2)n1-c1ccc(F)c(C(=O)O)c1 | 1.26 | – | – | – | –
Cc1ccc(-c2cc(C(F)(F)F)ccc2OCc2ccccc2)n1-c1ccc(F)c(C(=O)O)c1 | 2 | 27 | 36 | 870 | Activity [8]: 56%
Cc1ccc(-c2cc(F)ccc2OCc2ccc(F)cc2)n1-c1ccc(F)c(C(=O)O)c1 | 12.6 | – | – | – | –
Cc1ccc(-c2cc(Br)ccc2OCc2ccc(F)cc2)n1-c1ccc(Cl)c(C(=O)O)c1 | 2.51 | – | – | – | –

Continued, in another order:

IC50 [4] [nM] | AUC/dose [5] [kg·min/L] | Tmax [6] [min] | Cmax [7] [nM] | SMILES | further results
3.98 | 31 | 30 | 910 | Cc1c(N)cc(-n2c(C)ccc2-c2cc(C(F)(F)F)ccc2OCc2ccccc2)cc1C(=O)O | Activity [8]: 40%
0.794 | 52 | 66 | 1350 | Cc1c(N)cc(-n2c(C)ccc2-c2cc(Br)ccc2OCc2ccc(F)cc2)cc1C(=O)O | Activity [8]: 50%
6.31 | 9 | 240 | 220 | Cc1ccc(-c2cc(Cl)ccc2OCc2ccccc2)n1-c1cc(C(=O)O)c2ccccc2c1 | –
1.26 | – | – | – | Cc1ccc(-c2cc(Cl)ccc2OCc2ccccc2)n1-c1cc(C(=O)O)c2cc[nH]c2c1 | –
15.8 | – | – | – | Cc1ccc(OCc2ccc(F)cc2)c(-c2ccc(C)n2-c2ccc(F)c(C(=O)O)c2)c1 | –
